Consider eight molecules from PubChem BioAssay AID1919006 (Molecular Pharmacology Branch, DTP, NCI, 2023).

pIC50: −log10 of the molar value. “And” between values parts separate entries of the source, which are not always exact repeats. Identical values can stand only once.

The assay deals with 885512-296-R-J2-PDC complex spheroid growth, % test/control. Description: Anticancer human tumor 885512-296-R-J2-PDC patient-derived breast carcinoma cell line growth inhibition [AhR]. Conditions: for viability, T/C: stronger effect = lower value. An outline of the steps:
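Agents were dosed in half-log steps down from roughly clinical Cmax, or from 10 microM where Cmax was unknown, alone and with AhR antagonists. Read-out: percent test/control growth of tumor spheroids containing HUVEC and MSC stromal cells.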

[1] abbreviates: curve of first compound, second compound 0.1 µM.
[2] abbreviates: curve of first compound, second compound 0.316 µM.
Setting [3] is: curve of first compound, second compound 1 µM.
Setting [4] is: curve of first compound, second compound 3.16 µM.
The mark [5] stands for this setting: curve of first compound, second compound 10 µM.
[6] abbreviates: second compound 0.1 µM, first compound 0.0316 µM.
The mark [7] stands for this setting: second compound 0.1 µM, first compound 0.1 µM.
The mark [8] stands for this setting: second compound 0.1 µM, first compound 0.316 µM.
Setting [9] is: second compound 0.1 µM, first compound 1 µM.
Where [10] appears, read: second compound 0.1 µM, first compound 3.16 µM.
[11] abbreviates: second compound 0.1 µM, first compound 10 µM.
The mark [12] stands for this setting: second compound 0.316 µM, first compound 0.0316 µM.
Setting [13] is: second compound 0.316 µM, first compound 0.1 µM.
Where [14] appears, read: second compound 0.316 µM, first compound 0.316 µM.
The mark [15] stands for this setting: second compound 0.316 µM, first compound 1 µM.
The mark [16] stands for this setting: second compound 0.316 µM, first compound 3.16 µM.
Where [17] appears, read: second compound 0.316 µM, first compound 10 µM.
Where [18] appears, read: second compound 1 µM, first compound 0.0316 µM.
The mark [19] stands for this setting: second compound 1 µM, first compound 0.1 µM.
[20] abbreviates: second compound 1 µM, first compound 0.316 µM.
Setting [21] is: second compound 1 µM, first compound 1 µM.
Setting [22] is: second compound 1 µM, first compound 3.16 µM.
Setting [23] is: second compound 1 µM, first compound 10 µM.
Where [24] appears, read: second compound 3.16 µM, first compound 0.0316 µM.
Where [25] appears, read: second compound 3.16 µM, first compound 0.1 µM.
The mark [26] stands for this setting: second compound 3.16 µM, first compound 0.316 µM.
Where [27] appears, read: second compound 3.16 µM, first compound 1 µM.
The mark [28] stands for this setting: second compound 3.16 µM, first compound 3.16 µM.
Where [29] appears, read: second compound 3.16 µM, first compound 10 µM.
Where [30] appears, read: second compound 10 µM, first compound 0.0316 µM.
Where [31] appears, read: second compound 10 µM, first compound 0.1 µM.
[32] abbreviates: second compound 10 µM, first compound 0.316 µM.
Setting [33] is: second compound 10 µM, first compound 1 µM.
The mark [34] stands for this setting: second compound 10 µM, first compound 3.16 µM.
The mark [35] stands for this setting: second compound 10 µM, first compound 10 µM.
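Also: spheroids exposed to compounds for seven days.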

The pIC50 is −log10 of the IC50, conventionally taken in molar units. One may read the viability, T/C as the ratio of treated to control. Take `Nc1ccccc1NC(=O)c1ccc(CNC(=O)OCc2cccnc2)cc1` + Cc1cncc(-c2nc(NCCc3c[nH]c4ccccc34)c3ncn(C(C)C)c3n2)c1: the pIC50 is, setting by setting: under setting [1], 5.98; under setting [2], 5.95; under setting [3], 5.97; under setting [4], 6.43; under setting [5], greater than 7.50. For the same molecule, the viability, T/C is 85.6% under setting [6]; 102% under setting [7]; 80.5% under setting [8]; 47.3% under setting [9]; 31.2% under setting [10]; 12.6% under setting [11]. In addition, the viability, T/C runs as follows: under setting [12], 86.9%; under setting [13], 94.4%; under setting [14], 72%; under setting [15], 49.4%; under setting [16], 32.7%; under setting [17], 12.2%. For the same molecule, the viability, T/C was 82.3% under setting [18]; 78.7% under setting [19]; 77.7% under setting [20]; 48% under setting [21]; 29.6% under setting [22]; 15.2% under setting [23]. Besides, the viability, T/C by setting is: under setting [24], 56.6%; under setting [25], 61.3%; under setting [26], 49.5%; under setting [27], 40.4%; under setting [28], 25.1%; under setting [29], 15.2%. The viability, T/C is, setting by setting: under setting [30], 21.3%; under setting [31], 19.4%; under setting [32], 15.9%; under setting [33], 11.6%; under setting [34], 9.94%; under setting [35], 9.37%.
In the case of `COc1cc(Nc2ncc3c(n2)-c2ccc(Cl)cc2C(c2c(F)cccc2OC)=NC3)ccc1C(=O)O`, the viability, T/C runs as follows: (compound 0.0316 µM) 53.5% and 54% and 51.9%; (compound 0.1 µM) 43.2% and 52% and 43.9%; (compound 0.316 µM) 48.8% and 56.9% and 53%; (compound 1 µM) 42.7% and 45% and 41.8%; (compound 3.16 µM) 38.3% and 53.3% and 41.6%; (compound 10 µM) 37% (2×) and 39.3%.
As to `CC1(C)CCC(CN2CCN(c3ccc(C(=O)NS(=O)(=O)c4ccc(NCC5CCOCC5)c([N+](=O)[O-])c4)c(Oc4cnc5[nH]ccc5c4)c3)CC2)=C(c2ccc(Cl)cc2)C1`, the viability, T/C runs as follows: (compound 0.0316 µM) 110% and 95.6% and 109%; (compound 0.1 µM) 109% and 91.1% and 99.6%; (compound 0.316 µM) 91.2% and 87.2% and 101%; (compound 1 µM) 94.4% and 79.7% and 98%; (compound 3.16 µM) 59.5% and 62.4% and 71.5%; (compound 10 µM) 24.6% and 16.2% and 41.4%. Besides, the pIC50 (curve of compound) is 5.34 and 5.37 and 5.14.
As for `COc1cc(C2c3cc4c(cc3C(OC3OC5COC(C)OC5C(O)C3O)C3COC(=O)C23)OCO4)cc(OC)c1O` (configuration not stated) + Cc1ccccc1N=Nc1ccc(NC(=O)c2ccnn2C)c(C)c1, the pIC50 reads like this: under setting [1], 6.39; under setting [2], 6.38; under setting [3], 6.37; under setting [4], 6.54; under setting [5], 6.73. Besides, the viability, T/C runs as follows: under setting [6], 101%; under setting [7], 115%; under setting [8], 59.6%; under setting [9], 19.2%; under setting [10], 7.36%; under setting [11], 7.36%. Besides, the viability, T/C was 120% under setting [12]; 107% under setting [13]; 60.2% under setting [14]; 17.9% under setting [15]; 9.41% under setting [16]; 9.17% under setting [17]. For the same molecule, the viability, T/C by setting is: under setting [18], 96.2%; under setting [19], 102%; under setting [20], 60.8%; under setting [21], 17.3%; under setting [22], 9.27%; under setting [23], 8.44%. The viability, T/C under setting [24] is 81.4%; the viability, T/C under setting [25] is 71.5%; the viability, T/C under setting [26] was 49.5%; the viability, T/C under setting [27] was 15.3%; the viability, T/C under setting [28] was 7.76%; the viability, T/C under setting [29] was 7.73%. Besides, the viability, T/C is, setting by setting: under setting [30], 57.4%; under setting [31], 63.5%; under setting [32], 41.1%; under setting [33], 13.5%; under setting [34], 8.01%; under setting [35], 7.22%.
Turning to `Nc1ccn(C2OC(CO)C(O)C2(F)F)c(=O)n1` (configuration not stated) + CC(CO)NC(=O)c1cc(-c2ccc(Cl)cc2)nn(-c2cnn(C)c2)c1=O, the pIC50 by setting is: under setting [1], greater than 7.50; under setting [2], greater than 7.50; under setting [3], greater than 7.50; under setting [4], greater than 7.50; under setting [5], greater than 7.50. Besides, the viability, T/C reads like this: under setting [6], 2.76%; under setting [7], 3%; under setting [8], 3.87%; under setting [9], 4.14%; under setting [10], 4.54%; under setting [11], 3.83%. The viability, T/C under setting [12] was 3.69%; the viability, T/C under setting [13] was 3.44%; the viability, T/C under setting [14] is 2.94%; the viability, T/C under setting [15] is 4.15%; the viability, T/C under setting [16] is 4.75%; the viability, T/C under setting [17] was 4.18%. In addition, the viability, T/C by setting is: under setting [18], 2.96%; under setting [19], 3.26%; under setting [20], 3.72%; under setting [21], 3.82%; under setting [22], 5.38%; under setting [23], 4.22%. Besides, the viability, T/C is, setting by setting: under setting [24], 3.18%; under setting [25], 2.97%; under setting [26], 3.84%; under setting [27], 3.9%; under setting [28], 4.31%; under setting [29], 4.48%. Moreover, the viability, T/C was 6.37% under setting [30]; 5.16% under setting [31]; 4.54% under setting [32]; 3.78% under setting [33]; 4.11% under setting [34]; 4.01% under setting [35].
Take `CC1COCCN1c1cc(C2(S(C)(=N)=O)CC2)nc(-c2ccnc3[nH]ccc23)n1` (configuration not stated): the viability, T/C is 103% and 100% and 97% (compound 0.0316 µM); 107% and 96.4% and 98.6% (compound 0.1 µM); 101% and 104% and 91.9% (compound 0.316 µM); 86.5% and 73.7% and 82.7% (compound 1 µM); 31.6% and 18.2% and 17.2% (compound 3.16 µM); 5.26% and 5.01% and 5.03% (compound 10 µM). The pIC50 (curve of compound) was 5.67 and 5.79 and 5.75.
For the molecule `CCN(c1cc(-c2ccc(CN3CCOCC3)cc2)cc(C(=O)NCc2c(C)cc(C)[nH]c2=O)c1C)C1CCOCC1`, the viability, T/C (compound 0.00949 µM) was 99.4% and 113% and 105%; the viability, T/C (compound 0.03 µM) was 116% and 94.8% and 94.7%; the viability, T/C (compound 0.0949 µM) is 93% and 86.7% and 98.8%; the viability, T/C (compound 0.3 µM) was 89.7% and 91.3% and 78.9%; the viability, T/C (compound 0.949 µM) was 86.7% and 77.8% and 76.2%; the viability, T/C (compound 3 µM) was 72.8% and 67.7% and 80.9%. For the same molecule, the pIC50 (curve of compound) was less than 5.52.
As to `COc1cc(Nc2ncc3c(n2)-c2ccc(Cl)cc2C(c2c(F)cccc2OC)=NC3)ccc1C(=O)O` + CC(CO)NC(=O)c1cc(-c2ccc(Cl)cc2)nn(-c2cnn(C)c2)c1=O, the pIC50 is, setting by setting: under setting [1], 5.61; under setting [2], 6.63; under setting [3], 6.34; under setting [4], 5.87; under setting [5], less than 5.00. In addition, the viability, T/C by setting is: under setting [6], 53%; under setting [7], 48.3%; under setting [8], 51.4%; under setting [9], 57.6%; under setting [10], 46.4%; under setting [11], 48.3%. For the same molecule, the viability, T/C was 54.9% under setting [12]; 45.5% under setting [13]; 55% under setting [14]; 43.3% under setting [15]; 45% under setting [16]; 37% under setting [17]. Moreover, the viability, T/C runs as follows: under setting [18], 57.6%; under setting [19], 51.2%; under setting [20], 55.7%; under setting [21], 46.7%; under setting [22], 43%; under setting [23], 50.2%. The viability, T/C was 59.6% under setting [24]; 55.5% under setting [25]; 51.2% under setting [26]; 55.5% under setting [27]; 44.6% under setting [28]; 46.2% under setting [29]. Besides, the viability, T/C under setting [30] is 48.5%; the viability, T/C under setting [31] was 59.5%; the viability, T/C under setting [32] was 58.4%; the viability, T/C under setting [33] is 62.3%; the viability, T/C under setting [34] is 56.2%; the viability, T/C under setting [35] is 50.5%.
